{"source": "ChEMBL document CHEMBL2375281", "about": "“Exploring the UDP pocket of LpxC through amino acid analogs” (Bioorg Med Chem Lett, 2013)", "data": [{"test": "Lipophilicity, log D of the compound", "type": "physicochemical", "conditions": "octanol/water", "values": [{"molecule": "NC[C@H](NC(=O)c1ccc(C#Cc2ccccc2)cc1)C(=O)NO", "logD": 2}, {"molecule": "C#CCNC(=O)C[C@H](NC(=O)c1ccc(C#Cc2ccccc2)cc1)C(=O)NO", "logD": 3}, {"molecule": "O=C(N[C@H](CO)C(=O)NO)c1ccc(C#Cc2ccccc2)cc1", "logD": 2}, {"molecule": "NC(=O)C[C@H](NC(=O)c1ccc(C#Cc2ccccc2)cc1)C(=O)NO", "logD": 1}, {"molecule": "CC(C)C(NC(=O)c1ccc(C#Cc2ccccc2)cc1)C(=O)NO", "note": "(racemic)", "logD": "> 3"}, {"molecule": "CC(C)(NC(=O)c1ccc(C#Cc2ccccc2)cc1)C(=O)NO", "logD": 3}, {"molecule": "O=C(NC1(C(=O)NO)CCS(=O)(=O)CC1)c1ccc(C#Cc2ccccc2)cc1", "logD": 3}, {"molecule": "O=C(N[C@H](C(=O)NO)c1ccccc1)c1ccc(C#Cc2ccccc2)cc1", "logD": 3}, {"molecule": "O=C(C[C@H](NC(=O)c1ccc(C#Cc2ccccc2)cc1)C(=O)NO)NCCCO", "logD": 2}, {"molecule": "COCCNC(=O)C[C@H](NC(=O)c1ccc(C#Cc2ccccc2)cc1)C(=O)NO", "logD": 2}, {"molecule": "O=C(NC1(C(=O)NO)CCNCC1)c1ccc(C#Cc2ccccc2)cc1", "logD": 3}, {"molecule": "O=C(NC1(C(=O)NO)CCOCC1)c1ccc(C#Cc2ccccc2)cc1", "logD": "> 4"}, {"molecule": "O=C(N[C@@H](C(=O)NO)c1ccccc1)c1ccc(C#Cc2ccccc2)cc1", "logD": "> 3"}, {"molecule": "O=C(NC1(C(=O)NO)CCC1)c1ccc(C#Cc2ccccc2)cc1", "logD": "> 3"}, {"molecule": "O=C(NC1(C(=O)NO)CCN(Cc2ccccc2)CC1)c1ccc(C#Cc2ccccc2)cc1", "logD": "> 3"}, {"molecule": "CSC[C@H](NC(=O)c1ccc(C#Cc2ccccc2)cc1)C(=O)NO", "logD": 3}, {"molecule": "O=C(N[C@@H](CO)C(=O)NO)c1ccc(C#Cc2ccccc2)cc1", "logD": 2}, {"molecule": "O=C(NC1(C(=O)NO)CCSCC1)c1ccc(C#Cc2ccccc2)cc1", "logD": "> 3"}, {"molecule": "O=C(NC1(C(=O)NO)CCCCC1)c1ccc(C#Cc2ccccc2)cc1", "logD": "> 3"}, {"molecule": "CS(=O)(=O)C[C@H](NC(=O)c1ccc(C#Cc2ccccc2)cc1)C(=O)NO", "logD": 2}, {"molecule": "C[C@H](O)[C@H](NC(=O)c1ccc(C#Cc2ccccc2)cc1)C(=O)NO", "logD": 2}, {"molecule": "CC(NC(=O)c1ccc(C#Cc2ccccc2)cc1)C(=O)NO", "note": "(racemic)", "logD": "> 3"}, {"molecule": "O=C(CNC(=O)c1ccc(C#Cc2ccccc2)cc1)NO", "logD": 3}]}]}
